For series [1] the following is noted: cited from earlier work.
The test system of series [2] is Epithelial cells. The series is described as follows: Cellular viability with CA and CA-R mixes. Format: cell-based. An excerpt: Magnification of 10×, scale bar=100 μm, dapi in blue and factin in red.
Cellular viability. To be applicable in biological context, the toxicity of the CA and the combined CA-R mixes were verified. Epithelial cells were cultivated in media supplemented with various CA-R mixes and acidified at pH 6. Both the cellular viability and morphology was studied over a 5 day period.

In general, pKa refers to the pH at which an ionisable group is half protonated. Usually viability stands for a read-out of living cells in per cent, often relative to untreated cells.

As to `O=c1[nH]c(=O)[nH]c(=O)[nH]1` [CA, cyanuric acid], the pKa in series [1] is 6.9. The toxicity in vitro entry in series [2] is recorded as “low toxicity”. Also, the viability in series [2] (after 5 days, pH 6, CA 20 mM alone or CA 20 mM plus the named CA-R (CAC2NH2 30 mM, CAC6NH2 12 mM)) turned out to be 91±2%.

Source of the values: US20260224732A1, “BIOPOLYMER PROTECTED OLIGONUCLEOTIDES FOR DRUG DELIVERY” (THE ROYAL INSTITUTION FOR THE ADVANCEMENT OF LEARNING / …, priority 2023, published 2026).
